Results: paper PMC4109385 (BMC Microbiology, 2014)

Target: ClpC (with MecA) (Streptococcus mutans, UniProt Q8DS14)
Settings: 2 mM ATP, 5 mM MgCl2, 100 mM KCl, 25 mM Tris-HCl pH 8.0, 37 °C; 0.3 uM proteins; MecA present

Sequence of ClpC (with MecA) (Q8DW33 whole entry): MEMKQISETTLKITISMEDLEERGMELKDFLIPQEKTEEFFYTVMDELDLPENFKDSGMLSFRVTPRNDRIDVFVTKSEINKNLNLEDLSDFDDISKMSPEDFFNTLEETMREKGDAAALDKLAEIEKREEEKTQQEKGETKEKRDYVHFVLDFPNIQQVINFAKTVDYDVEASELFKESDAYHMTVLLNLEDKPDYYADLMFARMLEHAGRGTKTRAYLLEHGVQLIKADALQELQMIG
Sequence of ClpC (with MecA) (Q8DS14 entry or part of it): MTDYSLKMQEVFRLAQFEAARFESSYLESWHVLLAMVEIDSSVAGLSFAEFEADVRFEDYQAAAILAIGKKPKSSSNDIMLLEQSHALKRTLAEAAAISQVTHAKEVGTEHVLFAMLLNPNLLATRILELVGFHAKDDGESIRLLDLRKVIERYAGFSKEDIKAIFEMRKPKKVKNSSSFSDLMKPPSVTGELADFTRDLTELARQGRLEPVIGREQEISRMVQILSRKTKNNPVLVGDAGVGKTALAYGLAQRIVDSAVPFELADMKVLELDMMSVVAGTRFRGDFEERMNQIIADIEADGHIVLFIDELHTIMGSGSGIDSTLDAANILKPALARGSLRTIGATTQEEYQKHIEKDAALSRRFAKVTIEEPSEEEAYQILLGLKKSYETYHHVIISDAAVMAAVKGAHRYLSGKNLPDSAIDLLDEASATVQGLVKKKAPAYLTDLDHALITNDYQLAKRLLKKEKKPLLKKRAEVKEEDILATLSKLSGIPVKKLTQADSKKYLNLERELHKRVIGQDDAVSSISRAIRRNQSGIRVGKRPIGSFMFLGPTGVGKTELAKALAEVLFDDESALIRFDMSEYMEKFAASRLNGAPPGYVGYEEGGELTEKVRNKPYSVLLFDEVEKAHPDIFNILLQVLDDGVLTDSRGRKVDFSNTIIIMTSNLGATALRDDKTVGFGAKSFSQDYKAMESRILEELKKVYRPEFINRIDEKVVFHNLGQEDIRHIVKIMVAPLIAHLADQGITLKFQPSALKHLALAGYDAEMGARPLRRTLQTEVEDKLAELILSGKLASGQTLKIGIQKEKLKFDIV

Nc1ncnc2c1ncn2[C@@H]1O[C@H](COP(=O)(O)OP(=O)(O)OP(=O)(O)O)[C@@H](O)[C@H]1O [ATP] was tested, and the “malachite green ATPase assay (released orthophosphate)” value was “the presence of MecA increased the ATPase activity of ClpC (Figure 6A)”.
